According to ChEMBL document CHEMBL1126993, “Synthesis of oxazolidinone phospholipid analogue as a new inhibitor of phospholipase A2” (Bioorg Med Chem Lett, 1993):

Experiments:
Phospholipase A2 [1] = target: T1, Phospholipase A2 (Homo sapiens, UniProt P04054); assay: Tested for inhibitory activity of compound against Phospholipase A2 (PLA2); showed no significant inhibitory activity; set-up: species or system Gloydius blomhoffi
Target sequence in this assay (P04054 whole entry): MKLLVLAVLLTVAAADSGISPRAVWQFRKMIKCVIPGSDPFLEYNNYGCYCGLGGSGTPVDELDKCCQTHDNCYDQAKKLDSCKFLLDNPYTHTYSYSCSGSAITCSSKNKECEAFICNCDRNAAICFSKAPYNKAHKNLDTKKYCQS

Phospholipase A2 [2] = target: T1, Phospholipase A2; assay: Tested for binding affinity of compound against Phospholipase A2 (PLA2); conditions: Gloydius blomhoffi
Target sequence in this assay (P04054 23-148 limits assumed): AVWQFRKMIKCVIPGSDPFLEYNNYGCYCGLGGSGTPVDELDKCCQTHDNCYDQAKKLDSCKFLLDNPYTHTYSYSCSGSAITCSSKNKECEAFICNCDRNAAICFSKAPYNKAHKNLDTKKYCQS

IC50 (Phospholipase A2 [1]) | 1/Ki (Phospholipase A2 [2]) [M⁻¹] | SMILES
Not Active | – | CCCCCCCCCCCC(=O)N1C(=O)OC[C@H]1COP(=O)([O-])OCC[N+](C)(C)C
– | 270000 | CCCCCCCCCCCC(=O)N[C@H](CCCC)COP(=O)([O-])OCC[N+](C)(C)C
– | 45000 | CCCCCCCCCCCC(=O)N1C(=O)OC[C@@H]1COP(=O)([O-])OCC[N+](C)(C)C
